System: human IgG in mouse serum
Test: Immunoglobulin G (IgG) mRNA in vivo evaluation using lipid nanoparticle compositions (human IgG ELISA of mouse serum)
Parameters: species or system CD-1/ICR mice
Details: LNP with cationic lipid/DSPC/cholesterol/PEG lipid, tail vein injection, mouse serum 24 hours after administration; for Serum IgG (μg/mL) @ 0.3 mg/kg: IgG mRNA 0.3 mg mRNA/kg; for Serum IgG (μg/mL) @ 1.0 mg/kg: IgG mRNA 1.0 mg mRNA/kg
Method: A lipid of Formula (I), DSPC, cholesterol and PEG-lipid of Formula (II) are solubilized in ethanol at a molar ratio of 50:10:38.5:1.5 or 47.5:10:40.7:1.8. Lipid nanoparticles (LNP) are prepared at a total lipid to mRNA weight ratio of approximately 10:1 to 40:1. Briefly, the mRNA is diluted to 0.2 mg/mL in 10 to 50 mM citrate buffer, pH 4 to 6 or 10 to 25 mM acetate buffer, pH 4 to 6. Syringe pumps are used to mix the ethanolic lipid solution with the mRNA aqueous solution at a ratio of about 1:5 to 1:3 (vol/vol) with total flow rates above 15 mL/min. The ethanol is then removed, and the external buffer replaced with PBS by dialysis. Finally, the lipid nanoparticles are filtered through a 0.2 μm pore sterile filter.
Studies are performed in 6-8-week-old CD-1/ICR mice (Charles River or Inotiv) according to guidelines established by an institutional animal care committee (ACC) and the Canadian Council on Animal Care (CCAC). Varying doses of mRNA-lipid nanoparticle are systemically administered by tail vein injection and animals euthanized at a specific time point (e.g., 24 hours) post-administration. The whole blood is collected, and the serum subsequentially separated by centrifuging the tubes of the whole blood at 2000×g for 10 minutes at 4° C. and stored at −80° C. until use for analysis.
For immunoglobulin G (IgG) ELISA (Life Diagnostics Human IgG ELISA kit), the serum samples are diluted at 100 to 20,000 folds with 1× diluent solution. 100 μL of diluted serum is dispensed into anti-human IgG coated 96-well plate in duplicate alongside human IgG standards and incubated in a plate shaker at 150 rpm at 25° C. for 45 minutes. The wells are washed 5 times with 1× wash solution using a plate washer (400 μL/well). 100 μL of HRP conjugate is added into each well and incubated in a plate shaker at the same condition above. The wells are washed 5 times again with 1× wash solution using a plate washer (400 μL/well). 100 μL of TMB reagent is added into each well and incubated in a plate shaker at the same condition above. The reaction is stopped by adding 100 μL of Stop solution to each well. The absorbance is read at 450 nm (A450) with a microplate reader. The amount of human IgG in mouse serum is determined by plotting A450 values for the assay standard against human IgG concentration.
Representative compounds of the disclosure shown in Table 2 were formulated using the following molar ratio: 50% cationic lipid/10% distearoylphosphatidylcholine (DSPC)/38.5% Cholesterol/1.5% PEG lipid 2-[2-(ω-methoxy(polyethyleneglycol2000)ethoxy]-N,N-ditetradecylacetamide) or 47.5% cationic lipid/10% DSPC/40.7% Cholesterol/1.8% PEG lipid. Relative activity was determined by measuring the amount of human IgG in mouse serum as described in Example 1. The activity was compared at a dose of 1.0 or 0.3 mg mRNA/kg and expressed as ng luciferase/g liver measured 4 hours after administration, as described in Example 1 or as μg IgG/mL serum measured 24 hours after administration, as described in Example 2. Compound numbers in Table 2 refer to the compound numbers of Table 1.

| SMILES | Serum IgG (μg/mL) @ 0.3 mg/kg | Serum IgG (μg/mL) @ 1.0 mg/kg |
| --- | --- | --- |
| CCCCCCCCC(CCCCCCCC)OC(=O)OCCCCCCCN(CCCCCO)CCCCCCCC(=O)N(CCCCCCCC)CCCCCCCC [Compound I-23, 7-((8-(dioctylamino)-8-oxooctyl)(5-hydroxypentyl)amino)heptyl heptadecan-9-yl carbonate] | 34.8 ± 12.3 µg/mL | – |
| CCCCCCCCCCN(CCCCCCCCCC)C(=O)CCCCCCCN(CCCCCO)CCCCCCCCCOC(=O)OC(CCCC)CCCC [Compound I-14, 9-((8-(didecylamino)-8-oxooctyl)(5-hydroxypentyl)amino)nonyl nonan-5-yl carbonate] | 37.0 ± 18.5 µg/mL | 280.8 ± 86.6 µg/mL |
| CCCCCCCCCCOC(=O)OCCCCCCCCN(C)CCCCCCCC(=O)N(CCCCCCCCCC)CCCCCCCCCC [Compound I-2, decyl (8-((8-(didecylamino)-8-oxooctyl)(methyl)amino)octyl) carbonate] | 22.3 ± 7.8 µg/mL | 134.9 ± 26.6 µg/mL |
| CCCCCCCCCCN(CCCCCCCCCC)C(=O)CCCCCCCN(CCCCCO)CCCCCCCCOC(=O)OCC(CCCC)CCCCCC (stereo not shown) [Compound I-12, 2-butyloctyl (8-((8-(didecylamino)-8-oxooctyl)(5-hydroxypentyl)amino)octyl) carbonate] | 19.7 ± 6.8 µg/mL | – |
| CCCCCCCCCCOC(=O)OCCCCCCCCN(CCCCCO)CCCCCCCC(=O)N(CCCCCCCCCC)CCCCCCCCCC [Compound I-1, decyl (8-((8-(didecylamino)-8-oxooctyl)(5-hydroxypentyl)amino)octyl) carbonate] | 15.6 ± 5.1 µg/mL | 121.5 ± 33.1 µg/mL |
| CCCCCCCCCCN(CCCCCCCCCC)C(=O)CCCCCCCCC(CCCCCCCCC(=O)OCC(CCCC)CCCCCC)N(CCCCCCCC)C(=O)CCCN1CCCC1 (stereo not shown) [Compound I-24, 2-butyloctyl 19-(didecylamino)-10-(n-octyl-4-(pyrrolidin-1-yl)butanamido)-19-oxononadecanoate] | 25.1 ± 7.7 µg/mL | – |
| CCCCCCCCCCN(CCCCCCCCCC)C(=O)CCCCCCCN(CCCCCO)CCCCCCCCOC(=O)OC(CCCCCCC)CCCCCCC [Compound I-3, 8-((8-(didecylamino)-8-oxooctyl)(5-hydroxypentyl)amino)octylpentadecan-8-yl carbonate] | 30.1 ± 2.1 µg/mL | 173.3 ± 9.3 µg/mL |
| CCCCCCCCCCN(CCCCCCCCCC)C(=O)CCCCCCCN(CCCCCO)CCCCCCCCOC(=O)OCC(CCCCCC)CCCCCCCC (stereo not shown) [Compound I-19, 8-((8-(didecylamino)-8-oxooctyl)(5-hydroxypentyl)amino)octyl (2-hexyldecyl) carbonate] | 25.1 ± 4.2 µg/mL | 184.5 ± 40.2 µg/mL |
| CCCCCCCCCCN(CCCCCCCCCC)C(=O)CCCCCCCCC(CCCCCCCCC(=O)OCC(CCCC)CCCCCC)N(CCCCCCCCCC)C(=O)CCCN(C)C (stereo not shown) [Compound I-25, 2-butyloctyl 10-(n-decyl-4-(dimethylamino)butanamido)-19-(didecylamino)-19-oxononadecanoate] | 9.3 ± 1.7 µg/mL | 68.3 ± 13.4 µg/mL |
| CCCCCCCCC(CCCCCCCC)OC(=O)OCCCCCCCN(CCCCCO)CCCCCCCCCC(=O)N(CCCCCCCC)CCCCCCCC [Compound I-20, 7-((10-(dioctylamino)-10-oxodecyl)(5-hydroxypentyl)amino)heptyl heptadecan-9-yl carbonate] | 51.4 ± 12.8 µg/mL | – |
| CCCCCCCCCCN(CCCCCCCCCC)C(=O)CCCCCCCCC(CCCCCCCCC(=O)OCC(CCCC)CCCCCC)N(CCCCCCCCCC)C(=O)CCN(C)C (stereo not shown) [Compound I-8, 2-butyloctyl 10-(N-decyl-3-(dimethylamino)propanamido)-19-(didecylamino)-19-oxononadecanoate] | 21.7 ± 4.3 µg/mL | 232.4 ± 42.5 µg/mL |
| CCCCCCCCCCC(CCCCCCCCCC)OC(=O)OCCCCCN(CCCCCO)CCCCCCCC(=O)N(CCCCCCCCCC)CCCCCCCCCC [Compound I-15, 5-((8-(didecylamino)-8-oxooctyl)(5-hydroxypentyl)amino)pentyl henicosan-11-yl carbonate] | 7.8 ± 4.0 µg/mL | – |
| CCCCCCCCCCN(CCCCCCCCCC)C(=O)CCCCCCCN(CCCCCO)CCCCCCCOC(=O)OC(CCCCCCCC)CCCCCCCC [Compound I-18, 7-((8-(didecylamino)-8-oxooctyl)(5-hydroxypentyl)amino)heptyl heptadecan-9-yl carbonate] | 51.5 ± 9.5 µg/mL | 290.2 ± 50.5 µg/mL |
| CCCCCCCCCCCCN(CCCCCCCCCCCC)C(=O)CCCCCCCN(CCCCCO)CCCCCCCOC(=O)OC(CCCCCCCC)CCCCCCCC [Compound I-22, 7-((8-(didodecylamino)-8-oxooctyl)(5-hydroxypentyl)amino)heptyl heptadecan-9-yl carbonate] | 22.8 ± 11.0 µg/mL | – |
| CCCCCCCCCCN(CCCCCCCCCC)C(=O)CCCCCCCN(CCCCCO)CCCCCOC(=O)OC(CCCC)CCCC [Compound I-16, 5-((8-(didecylamino)-8-oxooctyl)(5-hydroxypentyl)amino)pentyl nonan-5-yl carbonate] | 18.5 ± 2.7 µg/mL | 75.4 ± 53.7 µg/mL |
| CCCCCCCCCCCCN(CCCCCCCCCCCC)C(=O)CCCCCN(CCCCCO)CCCCCCCOC(=O)OC(CCCCCCCC)CCCCCCCC [Compound I-21, 7-((6-(didodecylamino)-6-oxohexyl)(5-hydroxypentyl)amino)heptyl heptadecan-9-yl carbonate] | 9.7 ± 3.3 µg/mL | – |
| CCCCCCCCCCN(CCCCCCCCCC)C(=O)CCCCCCCN(CCCCCO)CCCCCCCCOC(=O)OCC(CC)CCCC (stereo not shown) [Compound I-11, 8-((8-(didecylamino)-8-oxooctyl)(5-hydroxypentyl)amino)octyl (2-ethylhexyl) carbonate] | 39.6 ± 6.3 µg/mL | – |
| CCCCCCCCCCN(CCCCCCCCCC)C(=O)CCCCCCCN(C)CCCCCCCCOC(=O)OC(CCCCCCC)CCCCCCC [Compound I-4, 8-((8-(didecylamino)-8-oxooctyl)(methyl)amino)octylpentadecan-8-yl carbonate] | 8.5 ± 2.0 µg/mL | 73.6 ± 15.6 µg/mL |
| CCCCCCCCCCC(CCCCCCCCCC)OC(=O)OCCCCCCCCCN(CCCCCO)CCCCCCCC(=O)N(CCCCCCCCCC)CCCCCCCCCC [Compound I-13, 9-((8-(didecylamino)-8-oxooctyl)(5-hydroxypentyl)amino)nonyl henicosan-11-yl carbonate] | 18.2 ± 3.3 µg/mL | 143.2 ± 23.9 µg/mL |
| CCCCCCCCCCN(CCCCCCCCCC)C(=O)CCCCCCCN(CCCCCO)CCCCCCCCCOC(=O)OC(CCCCCC)CCCCCC [Compound I-17, 9-((8-(didecylamino)-8-oxooctyl)(5-hydroxypentyl)amino)nonyl tridecan-7-yl carbonate] | 20.1 ± 6.7 µg/mL | – |

From patent publication US20240423915A1, “LIPIDS FOR USE IN LIPID NANOPARTICLES” (Acuitas Therapeutics, Inc., priority 2023, published 2024)
